Test [1] has as its system complexes containing both Syn4 and SN23. The test is described as follows: Co-immunoprecipitation of SNARE complexes in activated RBL-2H3 cells, anti-SNAP-23 blot. Conditions: peptides added to the medium after A23187 pretreatment; co-IP, blot anti-SNAP-23 (Figure 4C). Format: cell-based, rat. As for the experimental part: Lysates of RBL-2H3 cells (0.5–1 × 10^6 cells), which were obtained by the addition of 1 mL lysis buffer (50 mM Tris–HCl, 150 mM NaCl, 1% Triton X-100™, 1 mM EDTA, pH 7.5) supplemented with a protease inhibitor cocktail (Calbiochem®, Merck Millipore, Billerica, MA, USA), were centrifuged at 13,000 g at 4°C to remove cell debris and precleared with 100 µL protein G Sepharose® (GE Healthcare) for 2 h at 4°C. The precleared lysates were incubated with antibodies against SNARE proteins (Syn4, SNAP-23, VAMP2, and VAMP8) for 2 h at 4°C for binding, and then the antibody–antigen complexes were precipitated by incubation with a protein G slurry overnight with constant shaking. After an extensive washing step with lysis buffer, an immunoblotting analysis was performed for the precipitates. The immunoprecipitated proteins and cell lysates were electrophoresed on 12% sodium dodecyl sulfate-polyacrylamide gel electrophoresis gels and then transferred to nitrocellulose blotting membranes (GE Healthcare). After blocking the membranes in TBST (10 mM Tris–HCl, 150 mM NaCl, and 0.05% Tween® 20, pH 8) containing 0.5% BSA and 5% skim milk for 1 h at room temperature, primary anti-SNAP-23 antibody (1:1,000 dilution) in TBST supplemented with 1% BSA and 0.01% sodium azide was added and incubated at 4°C overnight. […]

A further test deals with T1, SN23-Syn4-Vp2 complex (Rattus norvegicus, UniProt O70377+P63045+Q08850).
T1 construct: Lysates of RBL-2H3 cells; endogenous in cells; host or cells: RBL-2H3 (ATCC CRL-2256)
T1 sequence (Q08850 whole entry): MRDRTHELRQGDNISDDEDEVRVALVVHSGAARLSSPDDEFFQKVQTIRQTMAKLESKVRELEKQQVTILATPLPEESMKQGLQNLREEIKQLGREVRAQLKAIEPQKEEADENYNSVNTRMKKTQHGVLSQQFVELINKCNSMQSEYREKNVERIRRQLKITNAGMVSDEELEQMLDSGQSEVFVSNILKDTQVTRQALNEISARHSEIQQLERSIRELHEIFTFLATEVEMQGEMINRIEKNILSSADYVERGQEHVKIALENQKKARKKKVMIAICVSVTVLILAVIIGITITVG
T1 sequence (O70377 whole entry): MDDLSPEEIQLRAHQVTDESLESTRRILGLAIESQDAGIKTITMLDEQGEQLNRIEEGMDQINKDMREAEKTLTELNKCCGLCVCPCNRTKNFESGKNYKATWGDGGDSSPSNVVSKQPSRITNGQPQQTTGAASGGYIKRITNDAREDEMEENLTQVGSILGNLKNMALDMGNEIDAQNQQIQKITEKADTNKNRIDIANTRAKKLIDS
T1 sequence (P63045 whole entry): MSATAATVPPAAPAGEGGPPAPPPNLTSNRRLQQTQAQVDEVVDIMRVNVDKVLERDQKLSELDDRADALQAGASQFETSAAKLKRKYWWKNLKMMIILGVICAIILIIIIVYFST
The description is as above. It is filed as cell-based. As to conditions: peptides added to the medium after A23187 pretreatment; IP of Vp2, blot anti-SNAP-23 (Figure 4C). As for the experimental part: Lysates of RBL-2H3 cells (0.5–1 × 10^6 cells), which were obtained by the addition of 1 mL lysis buffer (50 mM Tris–HCl, 150 mM NaCl, 1% Triton X-100™, 1 mM EDTA, pH 7.5) supplemented with a protease inhibitor cocktail (Calbiochem®, Merck Millipore, Billerica, MA, USA), were centrifuged at 13,000 g at 4°C to remove cell debris and precleared with 100 µL protein G Sepharose® (GE Healthcare) for 2 h at 4°C. The precleared lysates were incubated with antibodies against SNARE proteins (Syn4, SNAP-23, VAMP2, and VAMP8) for 2 h at 4°C for binding, and then the antibody–antigen complexes were precipitated by incubation with a protein G slurry overnight with constant shaking. After an extensive washing step with lysis buffer, an immunoblotting analysis was performed for the precipitates. The immunoprecipitated proteins and cell lysates were electrophoresed on 12% sodium dodecyl sulfate-polyacrylamide gel electrophoresis gels and then transferred to nitrocellulose blotting membranes (GE Healthcare). After blocking the membranes in TBST (10 mM Tris–HCl, 150 mM NaCl, and 0.05% Tween® 20, pH 8) containing 0.5% BSA and 5% skim milk for 1 h at room temperature, primary anti-SNAP-23 antibody (1:1,000 dilution) in TBST supplemented with 1% BSA and 0.01% sodium azide was added and incubated at 4°C overnight. The membranes were washed with TBST, treated with a horseradish peroxidase-conjugated secondary anti-mouse IgG antibody (A4416, Sigma-Aldrich), and visualized using enhanced chemiluminescence solution for the development of a luminescent signal.

The subject of another test is NC/Nga mice. The test is described as follows: DNCB-induced atopic dermatitis-like skin lesions. Format: in vivo, mouse. An excerpt: Seven-week-old NC/Nga mice were purchased from the Shizuoka Laboratory Animal Center (Shizuoka, Japan) and allowed to adapt to the environment for a week prior to use. The procedures for the induction of atopic dermatitis-like symptoms in mice using 1-chloro-2,4-dinitro-benzene (DNCB) have been well described previously ([27]). Briefly, the dorsal hair of the mice was shaved 2 days before DNCB administration. For the induction of atopic dermatitis, 1% DNCB was applied to the dorsal skin of the mice twice weekly for 7 days and then 0.2% DNCB was applied thrice weekly for 21 days. The mice were divided into the following […] treatment groups (n = 10 per group): 0.3 and 3% Vp2N/day, 0.3 and 3% Vp8N/day, 0.1% dexamethasone/day, and vehicle only, dorsally administered from 9 to 13 weeks of age. As a negative control for atopic dermatitis, NC/Nga mice that were not treated with DNCB were maintained under pathogen-free conditions. Laboratory animal breeding management was based on the “Guide for the Care and Use of Laboratory Animals,” and all experiments were approved by the Institutional Animal Care and Use Committees of Gyeonggi Institute of Science & Technology.

As to “EDEMEENLTQVGSILGN [SC23N, 17-mer peptide, N-terminal region of SNAP-23 SNARE motif SC23]”, the “amount of complexes containing both Syn4 and SN23 (binary Syn4-SN23 and ternary complexes)” value in test [1] is “most dramatically reduced”. Besides, the “SNARE complex formation in cells (amount of SN23-Syn4-Vp2 complex)” value on SN23-Syn4-Vp2 complex is reported as “reduced”.

For the sequence “LQSEVEGVKNIMTQNVE [Vp8N, 17-mer peptide, N-terminal region of VAMP8 SNARE motif]”, the epidermal thickness entry in the test with NC/Nga mice (0.3 and 3% peptide/day dorsally for 4 weeks, n = 10 per group, versus DNCB/vehicle-treated group (Figure 5C)) was “significantly reduced”. In addition, the “atopic dermatitis features (acanthosis, hypergranulosis, hyperkeratosis) in hematoxylin and eosin-stained sections” value in the test on NC/Nga mice (0.3 and 3% peptide/day dorsally, 9 to 13 weeks of age, n = 10 per group, compared with 0.1% dexamethasone/day group (Figure 5B)) was “clearly alleviated to a similar extent”. Also, in the test on NC/Nga mice (0.3 and 3% peptide/day or 0.1% dexamethasone/day for 4 weeks, n = 10 per group (Figure 5D)), the ear thickness result is reported as “reduced”. In addition, in the test on NC/Nga mice (daily dorsal application for 4 weeks, n = 10 per group (Figure 5F)), the “serum IgE levels” value is reported as “significantly reduced”.

Take “SARHSEIQQLERTIREL [Syn4N, 17-mer peptide, N-terminal region of syntaxin 4 SNARE motif]”: the “amount of complexes containing both Syn4 and SN23 (binary Syn4-SN23 and ternary complexes)” value in test [1] is given as “most dramatically reduced”. The “SNARE complex formation in cells (amount of SN23-Syn4-Vp2 complex)” value at SN23-Syn4-Vp2 complex is given as “reduced”.

For the origin of these results see publication PMC5904360, “Soluble N-Ethylmaleimide-Sensitive Factor Attachment Protein Receptor-Derived Peptides for Regulation of Mast Cell Degranulation” (Frontiers in Immunology, 2018).
